# Measured values taken from patent US20100113613A1, “CYCLOHEXANE POLYALCOHOL FORMULATION FOR TREATMENT OF DISORDERS OF PROTEIN AGGREGATION” (WARATAH PHARMACEUTICALS, priority 2006, published 2010).
# What was measured:
# [1] = system: TgCRND8 mice; test: TgCRND8 mice therapeutic dosing (5-6 months): Morris Water Maze; format: in vivo
# [2] = clinical; conditions: human, in vivo
# Text: Dose levels were escalated between cohorts, such that the first cohort received the lowest dose level, the middle cohorts received intermediate dose levels, and the final cohort received the highest proposed dose level. Dose escalation was dependent on a review of safety data from the previously dosed cohort. […] Dosing started with the lowest dose and escalated to the highest dose. […] Subjects received their single dose of study drug on the study day 1 (Day 1). Throughout the day on Day 1, subjects were monitored for safety and PK samples were drawn. On Day 2, subjects were monitored for safety and PK samples were drawn.
# [3] = system: TgCRND8 mice
# [4] = Competition of scyllo-inositol uptake by myo-inositol after single oral gavage (FIG. 17); format: in vivo; conditions: co-administration of 0, 50, 200 or 400 μg of myo-inositol
# Description: FIG. 17. A competition assay with myo-inositol to compete scyllo-inositol uptake, following a single oral gavage dose was examined. (A) Plasma 3^H-scyllo-inositol levels following co-administration of 0, 50, 200 or 400 μg of myo-inositol. Myo-inositol loading appears to alter the kinetics of oral scyllo-inositol uptake in a dose-dependent manner.
# [5] = system: Aβ plaque burden; test: TgCRND8 mice 2 month ad libitum treatment from 5 months: Aβ plaque burden; format: in vivo; conditions: 2 months ad libitum from 5 months
# [6] = system: TgCRND8 mice; test: Morris Water Maze, TgCRND8 mice dosed 3 to 4 months, 3.3-30 mg/kg/day (Example 3); format: in vivo
# Description: 8 mice were treated with scyllo-cyclohexanehexyl by oral gavage from 3 to 4 months. […] Animals were assessed at 4 months of age. Behavioural tests: Morris Water Maze testing was performed as previously described (Janus C, et al., 2000, Nature 408:979-982). After non-spatial pre-training, mice underwent place discrimination training for 5 days with 4-trials per day. Data were subjected to a repeated measures analysis of variance (ANOVA) with treatment (untreated, scyllo-cyclohexanehexyl) as the between subject factor. Cerebral plaque burden. Brains were removed and one hemisphere was fixed in 4% paraformaldehyde and embedded in paraffin wax in the mid sagittal plane. To generate sets of systematic uniform random sections, 5 μm serial sections were collected across the entire hemisphere. Sets of sections at 50 μm intervals were used for analyses (10-14 sections/set). Plaques were identified after antigen retrieval with formic acid, and incubation with primary anti-Aβ antibody (Dako M-0872), followed by secondary antibody (Dako StreptABCcomplex/horseradish kit). […] Aβ plaque burden was assessed with Leco IA-3001 image analysis software interfaced with Leica microscope and Hitachi KP-M1U CCD video camera. […] Vascular Aβ burden was defined as Aβ plaques originating from or surrounding blood vessels and was analysed similarly. […] The total swim path length to find the hidden platform is evaluated. […]
# [7] = system: naturally-expressed oligomers of Aβ; test: In vitro effect on naturally-expressed Aβ oligomers; conditions: naturally-expressed oligomers at 1-2 nM; 5 μM = 0.9 μg/mL
# naturally-expressed oligomers of Aβ, sequence (P05067 672-711 limits assumed): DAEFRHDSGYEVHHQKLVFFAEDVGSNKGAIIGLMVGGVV
# [8] = system: TgCRND8 mice; test: TgCRND8 effective dose range (0.3-3.3 mg/kg/day, 3 to 4 months): Morris Water Maze; format: in vivo; conditions: for effect on cognitive dysfunction and plaque burden: oral gavage twice daily
# Description: The highest possible dose level of scyllo-cyclohexanehexyl compound was administered in a CRND8 mouse model. […]8 mice were dosed for 28 days from 3 to 4 months of age, i.e. a time when the disease phenotype would be newly established. This study design was selected to enhance the efficiency of the study (dose earlier) and maximise the information obtained (dose at a time when changes are of sufficient magnitude to detect a treatment effect). […] Cognitive function and plaque burden were assessed. • Improvement of cognitive function: Animals were assessed using the Morris Water Maze at 4 months (FIG. 11). […] This path length was similar to that observed in previous experiments in mice dosed with the compound in drinking water ad libitum. […] Thus a clear dose response was observed.
compound,measurement,setting,value
"OC1C(O)C(O)C(O)C(O)C1O (centres unmarked) [AZD-103, scyllo-inositol]",swim path lengths vs non-transgenic littermates,"[1]; TgCRND8 mice treated 28 days from 5 months, p=0.11",indistinguishable from non-transgenic littermates
same,behavioural performance (swim path length in the Morris Water Maze) vs untreated controls,"[1]; TgCRND8 mice, 28 days from 5 months, drinking water 10 mg/ml (approx. 900 mg/kg over 24 hours), p=0.01",significantly better behavioural performance
same,"mean elimination half-life (t1/2), range over doses",[2]; po,13 24
same,CL/F,"[2]; po, 500 mg",13.67 ± 5.49 L/h
same,CL/F,"[2]; po, 1000 mg",8.51 ± 2.78 L/h
same,CL/F,"[2]; po, 2000 mg",9.59 ± 1.80 L/h
same,CL/F,"[2]; po, 3500 mg",7.71 ± 1.59 L/h
same,CL/F,"[2]; po, 5000 mg",10.04 ± 1.49 L/h
same,Vd,"[2]; male, 7000 mg",214 L
same,half-life,"[2]; male, 7000 mg",18.4 h
same,share of the AUC accounted for in the first 12 hrs,"[2]; male, po",80-85%
same,AUC(0-inf),"[2]; male, po, 500 mg",42.5 ± 22.1 µg·h/mL
same,AUC(0-t),"[2]; male, po, 500 mg",29.9 ± 7.11 µg·h/mL
same,Cmax,"[2]; male, po, 500 mg",5.83 ± 1.83 µg/mL
same,MRT,"[2]; male, po, 500 mg",19.1 ± 21.8 h
same,Tmax,"[2]; male, po, 500 mg",4 ± 1.55 h
same,half-life,"[2]; male, po, 500 mg",13.3 ± 16.7 h
same,AUC(0-inf),"[2]; male, po, 1000 mg",130 ± 44.4 µg·h/mL
same,Cmax,"[2]; male, po, 1000 mg",17 ± 5.29 µg/mL
same,MRT,"[2]; male, po, 1000 mg",19.7 ± 3.17 h
same,Tmax,"[2]; male, po, 1000 mg",3.25 ± 1.47 h
same,half-life,"[2]; male, po, 1000 mg",22.5 ± 5.75 h
same,AUC(0-inf),"[2]; male, po, 2000 mg",215 ± 41.9 µg·h/mL
same,AUC(0-t),"[2]; male, po, 2000 mg",194 ± 36.1 µg·h/mL
same,Cmax,"[2]; male, po, 2000 mg",33.1 ± 7.57 µg/mL
same,MRT,"[2]; male, po, 2000 mg",16.3 ± 3.99 h
same,Tmax,"[2]; male, po, 2000 mg",2.75 ± 0.61 h
same,half-life,"[2]; male, po, 2000 mg",23.9 ± 7.24 h
same,AUC(0-inf),"[2]; male, po, 3500 mg",467 ± 77.7 µg·h/mL
same,AUC(0-t),"[2]; male, po, 3500 mg",441 ± 71.4 µg·h/mL
same,Cmax,"[2]; male, po, 3500 mg",74.6 ± 9.24 µg/mL
same,MRT,"[2]; male, po, 3500 mg",11 ± 1.43 h
same,Tmax,"[2]; male, po, 3500 mg",2.75 ± 0.61 h
same,half-life,"[2]; male, po, 3500 mg",20.3 ± 3.09 h
same,AUC(0-inf),"[2]; male, po, 5000 mg",507 ± 72 µg·h/mL
same,AUC(0-t),"[2]; male, po, 5000 mg",491 ± 73.2 µg·h/mL
same,Cmax,"[2]; male, po, 5000 mg",110 ± 26.9 µg/mL
same,MRT,"[2]; male, po, 5000 mg",8.23 ± 2 h
same,Tmax,"[2]; male, po, 5000 mg",2.42 ± 0.66 h
same,half-life,"[2]; male, po, 5000 mg",16.9 ± 7.1 h
same,AUC(0-inf),"[2]; male, po, 7000 mg",885 ± 151 µg·h/mL
same,AUC(0-t),"[2]; male, po, 7000 mg",860 ± 148 µg·h/mL
same,Cmax,"[2]; male, po, 7000 mg",155 ± 20.4 µg/mL
same,Tmax,"[2]; male, po, 7000 mg",2.42 ± 0.67 h
same,half-life,"[2]; male, po, 7000 mg",18.4 ± 4.64 h
same,"twice-daily oral gavage vs one daily dose at equivalent doses, reversing cognitive deficits","[3]; TgCRND8 mice, dose finding studies",more effective than one daily dose
same,adverse effects in the mice,"[3]; mouse, in vivo",no evidence of adverse effects
same,brain levels of scyllo-inositol at 4 h following myo-inositol administration,[4],not significantly changed
same,growth of plaques by size distribution,[5],effective at inhibiting the growth of plaques of all sizes
same,percent brain area covered in plaques,[5]; P=0.0001,significantly reduced
scyllo-inositol [AZD-103],maximally efficacious dose level,"[6]; Morris Water Maze, TgCRND8 mice aged 4 months, oral twice daily",3.3 mg/kg/day
same,swim path length (Morris Water Maze) after 5 days of assessment vs placebo,"[6]; TgCRND8 mice treated 3 to 4 months, all dose levels, p=0.003, 0.008, 0.002 for 3.3, 10 and 30 mg/kg/day",significantly shorter
same,concentration showing greater consistency of effect,[7],5 µM
same,swim path length vs untreated controls,"[8]; TgCRND8 mice, 0.3 mg/kg/day, 28 days from 3 to 4 months",indistinguishable from untreated controls
same,effect on cognitive dysfunction and plaque burden,"[8]; TgCRND8 mice, 0.3 mg/kg/day, compared to untreated animals",no observed effect
same,effect on cognitive dysfunction and plaque burden,"[8]; TgCRND8 mice, 1.0 mg/kg/day",partial effectiveness
same,swim path length on day 5 of training vs untreated animals,"[8]; TgCRND8 mice, 3.3 mg/kg/day, 28 days from 3 to 4 months, p=0.04",significantly shorter swim path length
same,effect on cognitive dysfunction and plaque burden,"[8]; TgCRND8 mice, 3.3 mg/kg/day",significant alleviation of cognitive dysfunction and reduction in plaque burden
same,dose providing efficacy in terms of behaviour and Aβ accumulation,"[8]; young CRND8 mice dosed 12-16 weeks of age, oral",3.3 mg/kg/day
